For assay [1], the system named is Tyrosine--tRNA ligase (Staphylococcus aureus). The assay can be described thus: Inhibitory activity (3 uM) against Staphylococcus aureus tyrosyl tRNA synthetase (YRS) using aminoacylation assay; No inhibition.
The target of assay [2] is Tyrosine--tRNA ligase (Staphylococcus aureus). As to the kind of experiment: Inhibitory activity against Staphylococcus aureus tyrosyl tRNA synthetase (YRS) using aminoacylation assay.

The source of these data is ChEMBL document CHEMBL1134224, “Synthetic analogues of SB-219383. Novel C-glycosyl peptides as inhibitors of tyrosyl tRNA synthetase” (Bioorg Med Chem Lett, 2001).

Molecules are shown by their SMILES.

For orientation: IC50 means the point on the concentration scale where inhibition reaches its midpoint. Low readings indicate greater potency in that assay, high ones weaker potency in that assay. On to `N[C@@H](Cc1ccc(O)cc1)C(=O)N[C@@H](C(=O)O)[C@H]1OC[C@@H](O)[C@@H](O)[C@@H]1O`, for which, in assay [1], the IC50 result is “Not Active”.
As for `N[C@@H](Cc1ccc(O)cc1)C(=O)N[C@H](C(=O)O)[C@H]1OC[C@@H](O)[C@@H](O)[C@@H]1O`, the IC50 entry in assay [1] was “Not Active”.
The compound `N[C@@H](Cc1ccc(O)cc1)C(=O)N[C@H](C(=O)O)[C@H]1[C@H](O)[C@@H](O)[C@@H](O)CN1O` came in with an IC50 in assay [2] of 1.2 nM.
